{"source": "patent US12383526B2", "about": "“Optimized sigma-1 agonist method of responder selection and treatment” (ANAVEX LIFE SCIENCES CORP., priority 2018, dated 2025)", "key": {"[1]": {"tested_on": "subjects with mild-to-moderate AD", "assay": "MMSE (Mini Mental State Examination) change from baseline, 57-week Phase 2a study and 208-week extension study", "format": "in vivo, human", "conditions": "for MMSE Cohen's d: week 57, compared to standard of care", "excerpt": "The present study integrates and analyzes data and samples from two consecutive clinical trials: 57-week study and 208-week study. 57-week study was a multicenter Phase 2a clinical trial of the drug ANAVEX2-73 that recruited a sample of 32 subjects with mild-to-moderate AD. It consisted of two parts: Part A was a simple randomized, open-label, two-period, cross-over, adaptive trial lasting up to 5 weeks. Each period involved one specific administration route and two possible dose levels: in one period the oral dose (30 mg or 50 mg) was administrated and in the other period an intravenous (IV) form (3 mg or 5 mg) was administered, making a total of 8 possible dose administration schemes in Part A (details available in FIG. 2A). The two periods were separated by a wash-out period of 12 days where no dose was given.\nPart B, following immediately after Part A, was an open-label extension of the oral daily dose for an additional 52 weeks. The primary endpoint of 57-week study was to establish the safety and tolerability of the drug. Secondary endpoints aimed at establishing the relationship between dosing regimen and pharmacodynamics-exploratory efficacy outcomes of cognition and function. Cognition was assessed by the Mini Mental State Examination (MMSE), while functional abilities by the Alzheimer's Disease Co-operative Study—Activities of Daily Living Inventory (ADCS-ADL). Additional cognitive measures included the Cogstate Brief Battery (CBB), and functional measures of Electroencephalography and Event-Related Potential (EEG and ERP). Part B continued an adaptive oral administration scheme. Table 12 summarizes mean oral dose administration during the 57-week study study.\nDue to favorable safety and tolerability profile of the 57-week study (Table 2), and in response to requests from patients and caregivers, a 208-week open-label extension study (208-week study) was carried out immediately after completion of 57-week study Part B. 208-week study enrolled the 24 subjects who completed Part B and applied similarly an adaptive daily oral administration scheme. ANAVEX2-73-003 involves continuous evaluation of safety and efficacy as measured by the MMSE and ADCS-ADL. At week 148 (interim time point for analyses), data on the subjects remaining in the study (n=21) was analyzed for efficacy outcomes. This report was drafted using data available at week 148, while ANAVEX2-73-003 is still ongoing.\nExploratory clinical efficacy in this study was defined as change from baseline of each patient's cognitive (MMSE) and functional ability (ADCS-ADL) scores. The MMSE57 is a widely used, validated instrument in clinical AD research, including as a cognitive outcome measure in drug trials. The range of the scale is from 0 to 30, with a higher score indicating higher cognitive function. The ADCS-ADL58 is undertaken in a structured caregiver interview format and assesses performance in activities of daily living of patients with AD. The scale is from 0 to 78, with a higher score indicating greater function. The ADCS-ADL has shown to have good test-retest reliability 59. The MMSE and the ADCS-ADL were assessed during pre-specified clinical site visits across 14 different time points during the 57-week study (Weeks 0 and 5 in Part A; Weeks 17, 31, 41, 53, and 57 in Part B), and 208-week study (Weeks 70, 83, 96, 109, 122, 135, and 148) studies.\nCorresponding Delta scores were calculated using the difference between values at each visit and at baseline for each individual patient, with a focus on Week 57. In addition, to lower the impact of noise in MMSE and ADCS-ADL scores, a Slope was estimated using a linear regression across all available time points for each individual patient. The derived scores describe the progression of exploratory efficacy data from baseline at several specific time points (Deltas) and over a set period of time (Slope). […]"}, "[2]": {"tested_on": "Alzheimer's disease / dementia patients", "assay": "Sigma-1 agonist responder determination and therapy, single-patient examples 6-13", "format": "in vivo, human", "conditions": "6 months", "method": "A person presents with diagnosed Alzheimer's disease. Their SIGMAR1 gene is analyzed to the extent that it is determined that they carry glutamine at the 2 position of the SIGMAR1 gene. This is the wildtype. They are treated with A2-73 daily with a 30 mg oral dose. For 6 months.\nA person presents with diagnosed Alzheimer's disease. A cheek swab is taken and a genotype assay is performed to determine the presence of the SIGMAR1 2P genotype. By such analysis it is determined that the subject carries glutamine at the 2 position of the SigmaR1 gene receptor (protein). They are treated with ANAVEX2-73 daily with a 30 mg oral dose. For 6 months.\nA person presents with diagnosed dementia. Their SIGMAR1 gene is analyzed to the extent that it is determined that they carry proline at the 2 position of the SIGMAR1 gene. They are treated with ANAVEX2-73 daily with a 80 mg oral dose in combination with 1.5 mg oral rivastigmine twice per day for 6 months.\nA person presents with diagnosed Alzheimer's disease. […] They are treated with the A2-73 daily with a 30 mg oral dose. For 6 months.\nA person presents with diagnosed Alzheimer's disease. […] They are treated with A2-73 daily with a 30 mg oral dose. For 6 months.\nA person presents with diagnosed dementia. They carry glutamine at the 2 position of the SIGMAR1 gene. It is determined that they carry the KANSL1_p.P1010L/P304L/P946L mutation. They are treated with ANAVEX2-73 daily with a 70 mg oral dose in combination with 7 mg oral memantine daily for 6 months."}, "[3]": {"conditions": "Absence of COMT_L146fs variant & Baseline MMSE ≥20, N 11"}, "[4]": {"conditions": "Absence of COMT_L146fs variant, N 16"}, "[5]": {"conditions": "Absence of SIGMAR1_Q2P variant, N 16"}, "[6]": {"conditions": "Absence of SIGNAR1_Q2P variant & Baseline MMSE ≥20, N 11"}}, "note": "Marks after values point to notes of the source that are not given here.", "data": [{"molecule": "CN(C)CC1CCOC1(c1ccccc1)c1ccccc1.Cl", "note": "(stereo not shown) [ANAVEX2-73, tetrahydro-N,N-dimethyl-2,2-diphenyl-3-furanmethanamine hydrochloride]", "values": [{"measurement": "MMSE Mean Δ at 57 weeks", "setting": "[1]; [3]", "value": "0.18 ± 4.35"}, {"measurement": "MMSE Mean Δ at 57 weeks", "setting": "[1]; [4]", "value": "−0.62 ± 4.05"}, {"measurement": "MMSE Mean Δ at 57 weeks", "setting": "[1]; Absence of SIGMAR1_Q2P variant & Absence of COMT_L145fs variant & Baseline MMSE ≥20, N 10", "value": "0.50 ± 4.45"}, {"measurement": "MMSE Mean Δ at 57 weeks", "setting": "[1]; [5]", "value": "−0.62 ± 4.11"}, {"measurement": "MMSE Mean Δ at 57 weeks", "setting": "[1]; [6]", "value": "0.27 ± 4.29"}, {"measurement": "MMSE Mean Δ at 57 weeks", "setting": "[1]; All, N 21", "value": "−1.52 ± 4.15"}, {"measurement": "MMSE Mean Δ at 57 weeks", "setting": "[1]; Baseline MMSE ≥20, N 13", "value": "−0.15 ± 4.06"}, {"measurement": "favorable difference in adjusted MMSE, higher concentration arm compared with low/medium arm", "setting": "[1]; MMRM-LME, over 148 weeks", "value": 78, "unit": "%"}, {"measurement": "MMSE Cohen's d", "setting": "[1]; [3]", "value": "0.98**"}, {"measurement": "MMSE Cohen's d", "setting": "[1]; [4]", "value": "0.81**"}, {"measurement": "MMSE Cohen's d", "setting": "[1]; [5]", "value": "0.81**"}, {"measurement": "MMSE Cohen's d", "setting": "[1]; [6]", "value": "1.01**"}, {"measurement": "MMSE Cohen's d", "setting": "[1]; Baseline MMSE ≥20, N 13", "value": "0.94**"}, {"measurement": "disease course", "setting": "[2]; Example 6: person, Alzheimer's disease, glutamine at the 2 position of SIGMAR1, 30 mg oral daily", "value": "stable and not progress"}, {"measurement": "disease course", "setting": "[2]; Example 7: person, Alzheimer's disease, glutamine at the 2 position (cheek swab genotype assay), 30 mg oral daily", "value": "stable and not progress"}, {"measurement": "disease course", "setting": "[2]; Example 9: person, dementia, proline at the 2 position of SIGMAR1, 80 mg oral daily in combination with 1.5 mg oral rivastigmine twice per day", "value": "stable and not progress"}, {"measurement": "disease course", "setting": "[2]; Example 10: person, Alzheimer's disease, no COMT rs113895332/rs61143203 mutation, 30 mg oral daily", "value": "stable and not progress"}, {"measurement": "disease course", "setting": "[2]; Example 11: person, Alzheimer's disease, no SIGMAR1 rs1800866, 30 mg oral daily", "value": "stable and not progress"}, {"measurement": "disease course", "setting": "[2]; Example 13: person, dementia, glutamine at the 2 position, KANSL1_p.P1010L/P304L/P946L mutation, 70 mg oral daily in combination with 7 mg oral memantine daily", "value": "stable and not progress"}]}]}
